According to patent US8105833B2, “Method for forming organ” (Research Foundation Itsuu Laboratory, priority 2003, dated 2012):

Legend:
[1] = system: embryoid bodies from ES cells (E14 cells or B6 cells); experiment: Formation of heart (autonomically beating cardiac muscle-like cell aggregates) from embryoid bodies using RXR ligand; type: cell-based, mouse; parameters: frequency of appearance of autonomically beating cardiac muscle-like cell aggregates: dose or concentration left out as unconfirmed
Protocol: (§1) As ES cells, E 14 cells of the 29 mouse strain (ATCC #: CRL-1821) or B6 cells of the C57BL mouse strain (ATCC #: SCRC-1002) were used. Mouse fetal fibroblasts prepared from a mouse embryo on the 13th day were inoculated on a 0.1% gelatin-coated culture dish, and cultured in a medium containing 12% fetal bovine serum (Gibco), 100 U/ml penicillin (Sigma) and 100 μg/ml streptomycin (Sigma) for 24 hours. These cells were treated with 10 μg/ml mytomicin C (MMC, Sigma) for four hours to inhibit cell division and then washed twice with phosphate-buffered saline (PBS) to remove MMC. The ES cells were inoculated on these fibroblasts (feeder). As the medium for the ES cells, D-MEM (high glucose, Gibco) containing 15% fetal bovine serum for ES (Gibco), 2 mM L-glutamine (Gibco), MEM non-essential amino acid (Sigma), 1 mM sodium pyruvate (Gibco), 0.0007% β-mercaptoethanol (Sigma), 1000 U/ml Leukemia inhibiting factor (Chemicon), 100 U/ml penicillin (Sigma) and 100 μg/ml streptomycin (Sigma) was used, and the cells were cultured in a CO2 incubator (5% CO2, 100% humidity) at 37° C. The medium was exchanged every day.
(§2) Subculture was performed 72 hours after the inoculation of the ES cells. MMC-treated feeder cells (mouse fetus fibroblasts) were inoculated on a gelatin-coated culture dish, and after 24 hours, the ES cells completely dissociated by a treatment with 0.05% trypsin-0.02% EDTA were inoculated to allow formation of colonies (see, FIG. 1). The ES cells were cultured for three days after the inoculation to allow formation of colonies, and a colony was isolated by pipetting and then inoculated on a culture dish for bacteria with an extremely low cell attachment property. As the medium, D-MEM (high glucose) containing 15% Knockout SR (KSR, Gibco), 100 U/ml penicillin and 100 μg/ml streptomycin was used. The cells were further cultured for three days under this condition to prepare embryoid bodies (FIG. 2). […]

[2] = system: embryoid bodies from ES cells; experiment: Formation of smooth muscle-like cells from embryoid bodies using RXR ligand; type: cell-based, mouse; conditions: 1×10^−5 to 2×10^−6 M PA024, then further cultured
Protocol: as §1
Subculture was performed 72 hours after the inoculation of the ES cells. […]

[3] = system: embryoid bodies from ES cells; experiment: Formation of adipocytes from embryoid bodies using RXR ligand; type: cell-based, mouse; parameters: adipocytes formed in comparison with the control group (all-trans retinoic acid): dose or concentration left out as unconfirmed
Protocol: as §1, §2

[4] = system: animal cap cells (pluripotent cell aggregates) at the blastula stage; conditions: activin at a high concentration; cited from earlier work

## CC1(C)CCC(C)(C)c2cc(N(CC3CC3)c3ncc(C(=O)O)cn3)ccc21 [PA024, 2-[N-cyclopropylmethyl-N-(5,6,7,8-tetrahydro-5,5,8,8-tetramethylnaphthalen-2-yl)amino]pyrimidine-5-carboxylic acid]
[1]; 2×10−6 M PA024
  formation of cardiac muscle-like cell aggregates: 0.5 cell aggregate per embryoid body
[1]; PA024, cultured for 2 days
  frequency of appearance of autonomically beating cardiac muscle-like cell aggregates: 0.2 cell aggregate per embryoid body
[2]
  time of formation of smooth muscle-like cells: one to two
[3]; 1×10^−5 to 2×10^−6 M PA024
  time of appearance of adipocytes: about two
[3]; 1×10^−5 to 2×10^−6 M PA024, culture continued for 20 days
  adipocyte formation in terms of the value per embryoid body: ~100%
[3]; PA024 treated group versus all-trans retinoic acid control
  adipocytes formed in comparison with the control group (all-trans retinoic acid): two or three times more

## CC1=C(/C=C/C(C)=C/C=C/C(C)=C/C(=O)O)C(C)(C)CCC1 [all-trans retinoic acid]
[1]; control group treated with 1×10^−5 M, over two weeks after the treatment
  differentiation of cardiac muscle-like cells: almost no differentiation

## activin
[4]
  formation rate of rhythmically beating heart: 60%
